Reference: publication PMC7651685 (Psychopharmacology, 2020)
Values joined by “and” are separate entries in the source; they are usually repeats but may differ in a detail not shown here. Equal entries are not always repeated. Structures can show the parent of a compound that is named as a salt. Where two headings read alike, the source gives them in different places.

Key:
[1] = Plasma levels of DAS or MPH during the displacement studies; format: in vivo, rhesus macaques (Macaca mulatta); conditions: for Average plasma (infusion period): individual animals A, B
Protocol: Venous blood samples (1 ml) were collected during the respective bolus and 4-step infusion displacement studies to measure the plasma levels of either DAS or MPH. Blood samples were collected in K3 EDTA vials, processed for plasma, frozen, and stored at − 20 °C until required for HPLC analysis of either DAS or MPH levels.

D2 receptors = test: [11C]-Raclopride PET: elevation of synaptic dopamine
Protocol: Two female rhesus macaques (weight, 8.4 ± 0.2 kg; age, 16.6 ± 0.5) were scanned with [^11C]-Raclopride a total of 8 times, each under 4 scanning conditions per test agent. All scans were performed with [^11C]-Raclopride (tracer mass limited to 0.25 μg/kg) administered as an intravenous (i.v.) bolus + constant infusion (3 min bolus +132 min infusion; Kbol = 60 min; injected dose 5.8 ± 1.0 mCi). Scan data collection began simultaneously with tracer injection using the Siemens FOCUS 220 PET scanner. The scan data was acquired for 135 min and binned into sinograms with the following frame timing: 6 × 30 s; 3 × 1 min; 2 × 2 min; and 25 × 5 min. Prior to each tracer injection, a transmission scan was performed with an external gamma source for attenuation correction.
Experiment day 1 consisted of an initial [^11C]-Raclopride injection with MPH given i.v. at 45 min post-start of tracer administration under tracer steady-state conditions (displacement experiment). A second [^11C]-Raclopride scan was initiated ~ 2.5–3.5 h after the start of scan 1. Experiment day 2 consisted of a MPH pre-block initiated ~ 30 min prior to the first scan. A second scan was again initiated ~ 2.5–3.5 h after the start of scan 1. This same 2-day scanning paradigm was completed for both subjects and repeated using DAS in place of MPH. The test agent doses used were 0.2 mg/kg for DAS and 0.5 mg/kg for MPH. A minimum of 2-week recovery time was allowed between scans with the same subject.
Dynamic scan data were reconstructed with a filtered back-projection algorithm with corrections for attenuation, normalization, scatter, and randoms. ROIs were manually delineated on a single representative anatomical rhesus monkey magnetic resonance image (MRI) registered to a template image. Regions used in this study were caudate and putamen with the cerebellum as the reference region. Registration parameters were obtained to apply the ROIs to individual PET scans, and regional TACs were generated for the ROIs. Apparent binding potential (BPND) curves (target-to-cerebellum ratio - 1) were calculated for putamen and caudate by pooling the data from the 4 injections for each animal/drug combination. The following models were used to describe the apparent BPND curves. Model 1 is based on a gamma function where the occupancy increases, reaches a maximum, and then decreases, and both phases can be measured in the study. Model 2 has only increasing occupancy with time, approaching an asymptotic value. • Model 1: Four-parameter model (gamma function):
The change of BPND over time is modeled using a gamma function. BPNDt=BP01−At−t0^αexp−βt−t0t≥t0
The model can be reformulated as follows: BPNDt=BP01−Occ^maxt−t0/tmax−t0^αexpα1−t−t0/tmax−t0t≥t0α≡−ln2/1−τ+lnττ≡t1/2,R−t0/tmax−t0τ<1ort1/2,F−t0/tmax−t0τ>1 where t0 is the known time of drug administration and BP0 is the apparent BPND at time t0. The maximum occupancy, Occ^max, is obtained at time, tmax. The occupancy rises to 50% of Occ^max at the time, t1/2,R (< tmax), and falls to 50% of Occ^max at time, t1/2,F (> tmax). The 4 parameters of this model are BP0, Occ^max, tmax, and t1/2,R (or t1/2,F). • Model 2: Three-parameter model: BPNDt=BP01−Occ^max1−exp−βt−t0,β=ln2/t1/2,R−t0t≥t0
The parameters of this model are BP0, Occ^max, and t1/2,R.

[2] = Tolerability and vital signs after i.v. administration; format: in vivo, rhesus macaques; conditions: for Changes in heart rate, respiratory rate, blood pressure, oxygen saturation and temperature compared with baseline: after i.v. administration, data not shown; for Tolerability of i.v. administration: all doses examined
Protocol: PET experiments within an animal were spaced at least 2 weeks apart to allow recovery from anesthesia. Animals were fasted for 18–24 h prior to each PET scan experiment. At 2–2.5 h before radiotracer injection, the animal was anesthetized with ketamine (10–15 mg/kg) and glycopyrrolate 0.01 mg/kg i.m., transferred to the PET camera, and intubated with an endotracheal tube for continued anesthesia with 2.0–2.5% isoflurane administered through a rebreathing circuit. An intravenous line was placed and used for injection of radiotracer and administration of the drug. A heated water blanket was used to maintain normal body temperature (37 °C). Vital signs, including heart rate, blood pressure, respiration rate, oxygen saturation, and body temperature, were monitored approximately every 1 to 15 min during the study (data not shown).
Animals tolerated i.v. administration of DAS or MPH at all doses examined.

[3] = Extrapolated permeability and half-time to reach brain equilibrium (equation of Liu et al.)
Description: While lipid solubility and protein binding influences brain penetration, it appears that it is the combination of these two properties that influences the rate of brain penetration of a drug (Liu et al [2005]). […] The half-time to reach brain equilibrium (t1/2 equil) can be estimated by the following equation:
t1/2 equil = Vbln2/(PS.fu,brain)
where Vb is brain volume, PS is the permeability surface area product, P is the permeability rate, S is the surface area and fu is the unbound (free) drug brain concentration.
For comparative purposes between MPH and DAS, we can assume Vb and surface area are the same for both drugs, and the above equation becomes: t1/2equil∝1/P.fu,brain
As mentioned above, plasma protein binding of DAS and MPH are ~ 0.97 (or ~ 97%) and ~ 0.14 (or 14%) respectively, and the free plasma concentration of DAS is 0.03 and for MPH, it is 0.86. Since free drug plasma concentration is equal to free drug brain concentration, we can apply the free drug plasma concentration values of DAS and MPH together with the extrapolated permeability for DAS (12P) and MPH (P) to approximate t1/2 equil for both drugs, i.e.,

[4] = tested on: dopamine efflux in the nucleus accumbens; design: method as in Rowley et al. [2017]; conditions: rat nucleus accumbens microdialysis; ref Rowley et al. [2017]; cited from earlier work
DAT = conditions: cited from earlier work
plasma protein [5] = conditions: cited from earlier work
plasma protein [6] = test: Plasma protein binding; conditions: for Free plasma concentration (fraction): as fraction; for Free plasma concentration (fraction) / Free plasma concentration: from plasma protein binding
[7] = MPH 0.5 mg/kg i.v., model 1 fit
[8] = DAS 0.2 mg/kg i.v., model 2 fit

COC(=O)C(c1ccccc1)C1CCCCN1 (racemic) [MPH, (±)-Methyl α-Phenyl-α-(2-piperidyl)acetate hydrochloride, reference compound]
Cmax, Mean ± SD ([1]; MPH 0.1 mg/kg i.v. 3 min bolus, group mean): 169.2 ± 28.4 ng/mL
Cmax ([1]; MPH 0.1 mg/kg i.v. 3 min bolus, individual animals A-D): 137 ng/mL and 177 ng/mL and 117 ng/mL
Cmax ([1]; MPH 0.5 mg/kg i.v. 3 min bolus, individual animals A-D): 823 ng/mL and 609 ng/mL and 729 ng/mL
Average plasma (infusion period) ([1]; MPH 4.3 mg, bolus plus 4-step infusion over 40 min): 111.9 ng/mL and 91.52 ng/mL
Cmax ([1]; rhesus monkey, plasma, iv, 0.1 mg/kg, MPH 0.1 mg/kg i.v. 3 min bolus, group mean, read-out: Cmax, Mean ± SD): 169 ± 28.4 ng/mL
Cmax ([1]; rhesus monkey, plasma, iv, 0.5 mg/kg, MPH 0.5 mg/kg i.v. 3 min bolus, group mean, read-out: Cmax, Mean ± SD): 823 ± 111 ng/mL
Cmax ([1]; rhesus monkey, plasma, iv, 0.5 mg/kg, MPH 0.5 mg/kg i.v. 3 min bolus, individual animals A-D, read-out: Cmax): 1130 ng/mL
Maximum reduction in [11C]-raclopride binding (Occmax) in caudate and putamen (D2 receptors; [7]): 27%
Time for half-maximal displacement (t1/2,R) of [11C]-raclopride (D2 receptors; [7]): 23 min
Time for half-maximal displacement of [11C]-raclopride shorter than for DAS (D2 receptors; MPH 0.5 mg/kg relative to DAS 0.2 mg/kg): 4 fold
Changes in heart rate, respiratory rate, blood pressure, oxygen saturation and temperature compared with baseline [2]: No changes outside physiologically accepted limits
Tolerability of i.v. administration [2]: tolerated
Faster than DAS in reaching brain equilibrium ([3]; MPH relative to DAS, from t1/2equil): > 2 fold
Time of peak of dopamine efflux [4]: 40 min
DAT occupancy OC50 (DAT; ref Spencer et al. [2006]): 6 ng/mL
Plasma protein binding (plasma protein [5]; ref Faraj et al. [1974]): < 14%
Free plasma concentration higher than that of DAS (plasma protein [6]; MPH relative to DAS): ~30 fold
Free plasma concentration (fraction) (plasma protein [6]): 0.86
Free plasma concentration (plasma protein [6]): 86%

N[C@@H]1CC[C@@H](c2ccc(Cl)c(Cl)c2)c2ccccc21 [DAS, (1R,4S)-4-(3,4-dichlorophenyl)-1,2,3,4-tetra-hydronaphthalen-1-amine]
Cmax ([1]; DAS 0.1 mg/kg i.v. 3 min bolus, individual animals A-D): 87.9 ng/mL and 25.9 ng/mL and 102 ng/mL and 54.6 ng/mL
Cmax ([1]; DAS 0.2 mg/kg i.v. 3 min bolus, individual animals A-D): 213 ng/mL and 123 ng/mL
Average plasma (infusion period) ([1]; DAS 6.0 mg, bolus plus 4-step infusion over 40 min): 34.86 ng/mL and 32.38 ng/mL
Average plasma (infusion period), Mean ([1]; DAS 6.0 mg, bolus plus 4-step infusion over 40 min, mean of two animals): 33.62 ng/mL
Cmax ([1]; rhesus monkey, plasma, iv, 0.1 mg/kg, DAS 0.1 mg/kg i.v. 3 min bolus, group mean, read-out: Cmax, Mean ± SD): 71.9 ± 23.4 ng/mL
Cmax ([1]; rhesus monkey, plasma, iv, 0.2 mg/kg, DAS 0.2 mg/kg i.v. 3 min bolus, group mean, read-out: Cmax, Mean ± SD): 175 ± 26.9 ng/mL
Cmax ([1]; rhesus monkey, plasma, iv, 0.2 mg/kg, DAS 0.2 mg/kg i.v. 3 min bolus, individual animals A-D, read-out: Cmax): 190 ng/mL
Maximum reduction in [11C]-raclopride binding (Occmax) in caudate and putamen (D2 receptors; [8]): 29%
Time for half-maximal displacement (t1/2,R) of [11C]-raclopride (D2 receptors; [8]): 88 min
Time to 50% maximum displacement of [11C]-Raclopride / elevation of synaptic DA slower than MPH (D2 receptors; DAS relative to MPH): ~ 4 fold and 4 fold
Changes in heart rate, respiratory rate, blood pressure, oxygen saturation and temperature compared with baseline [2]: No changes outside physiologically accepted limits
Tolerability of i.v. administration [2]: tolerated
t1/2equil (half-time to reach brain equilibrium), proportional to ([3]; 1/(P.fu,brain) with extrapolated permeability (DAS 12P, MPH P) and free plasma fraction): 2.77 P
Time to reach maximum effect on dopamine efflux post-dose [4]: up to 2 h
Reported human DAT RO50 (DAT; human, ref DeLorenzo et al. [2011], Hopkins et al. [2017]): 4.5 to 6 ng/mL
DAT occupancy OC50 (DAT; ref DeLorenzo et al. [2011]): 4 ng/mL
Plasma protein binding (plasma protein [5]; Data-on-file, ref Sunovion report 360–455): ~ 97%
Plasma protein binding (fraction) (plasma protein [5]; as fraction, Sunovion report 360–455 (DAS)): ~ 0.97
Free plasma concentration (fraction) (plasma protein [6]): 0.03
Free plasma concentration (plasma protein [6]): 3%
